# Data: patent US20100305174A1, “Novel Heterocyclic Derivatives” (ORCHID RESEARCH LABORATORIES LIMITED, priority 2005, published 2010)
# Read-outs that look alike come from different tables or passages of the source.
# Legend:
# IL-1β = IL-1β inhibition in LPS-challenged human PBMC; type: cell-based; details: LPS 100 ng/mL, 20 hours
# Description: (§1) Human PBMC cells were cultured and incubated with compounds listed in table-4 at 1 and 10 μM concentrations. Cells (1×10^6/mL) were challenged with lipopolysaccharides (LPS) at a concentration of (100 ng/mL) for 20 hours. Cell supernatant was analyzed for the presence of TNF-α, IL-1β and IL-6 cytokines by antibody directed enzyme-linked immunoassay.
# MCF-7 = test: Inhibition of breast cancer cell growth (MTS); type: cell-based; details: 10 μM, six days, MTS viability
# Description: MCF-7 is a breast cancer cell line and they were grown in 96 well plates at 1000 cells/well. The cells were pretreated with compounds mentioned in FIG. 2 at 10 μM concentration or taxol at 1 and 2.5 μM concentration or DMSO for six consecutive days. Every 48 hrs they were stained with MTS dye and viability was checked accordingly.
# DPP IV = target: T1, DPP IV (Homo sapiens, UniProt P27487); test: DPP IV assay (human plasma as source, H-gly-pro AMC substrate); type: biochemical; details: compared to vehicle control
# T1 construct: using human plasma as a source of DPP IV; from tissue; host or cells: human plasma
# Description: DPP IV assay is carried by using human plasma as a source of DPP IV. The compounds were incubated at a concentration of 1 and 10 μM in assay buffer containing DPP IV enzyme. The compounds were incubated for 1 hr and then the substrate H-gly-pro AMC was added and further incubated for 20 min and then the reaction was stopped on addition of 25% glacial acetic acid. The plates were read in a spectrofluorimeter to get RFU on setting excitation wavelength of 360 nm and emission wavelength of 460 nm. Percentage inhibition is calculated as compared to vehicle control.
# TNF-α = TNF-α inhibition in LPS-challenged human PBMC; type: cell-based; details: LPS 100 ng/mL, 20 hours
# Description: as §1
# HT-29 = test: Inhibition of colon cancer cell growth (MTS); type: cell-based; details: 10 μM, six days, MTS viability
# Description: HT-29 is a colon cancer cell line and they were grown in 96 well plates with seeding concentration of 1000 cells/well. The cells were pretreated with compounds mentioned in FIG. 3 at 10 μM concentrations or taxol at 1 and 2.5 μM concentration or DMSO for six consecutive days. Every 48 hrs they were stained with MTS dye and viability was checked accordingly.
# 3T3-L1 cells = test: Glucose uptake assay using 3T3-L1 cells; type: cell-based; details: for Stimulation Index: 1 μM, 72 hours, differentiated 3T3-L1 adipocytes, 14C deoxyglucose uptake, relative to BLX-1002
# Description: 3T3-L1 cells were differentiated by the addition of differentiation cocktail (72 μg/ml insulin, 0.5 mM IBMX, 400 ng/ml Dexamethasone) for 4 days and later fed with media without differentation cocktail for 7-8 days. After differentiation the cells were incubated with the either reference compound BLX-1002 or compounds listed in the table 1 at 1 μM concentrations for 72 hours and carried out the glucose uptake assay for 10 min by the addition of KRP buffer supplemented with 2.5 μCi/ml ^14C deoxy glucose. Stimulation Index is defined as the amount of ^14C Deoxyglucose uptake induced by 1 μM of BLX-1002 incubated for 72 hrs in an assay condition as per protocol described above with differentiated 3T3-L1 adipocytes. Values of compounds mentioned in table-1 are with reference to stimulation index of reference compound BLX-1002.
# 3T3-L1 fibroblasts = test: Adipogenesis assay in 3T3-L1 (Oil-red-O staining); type: cell-based
# Description: All known PPARγ agonists induce differentiation in fibroblast cells. The adipogenic potential of these compounds is correlated with their affinity to this receptor. To check quickly the affinity of compounds to these receptors, 3T3-L1 fibroblasts were treated with either DMSO control or rosiglitazone as positive control or the compounds at 1 μM concentration for several days. On day 13th, the differentiated adipocytes were stained with Oil-red-O (Sigma) and washed thoroughly to remove unbound stain and visualized under Olympus microscope. […] This is an indirect proof that example 78 have no affinity to PPARγ receptor.
# [1] = tested on: streptozotocin induced diabetic mice; test: Antidiabetic activity in streptozotocin induced diabetic mice; type: in vivo, Swiss albino mice; details: Mus musculus, 168 h, 50 mg/kg oral, 7 days, plasma, compared to control group
# Description: Swiss albino mice of either sex were used in the study at the age of 10 weeks. Diabetes was induced in animals by injecting streptozotocin by i.p. route at a dose of 200 mg/kg body weight. 48 hours after streptozotocin administration, the animals were kept for fasting for 6 hours and blood was collected and plasma separated and glucose was estimated. Animals showing greater than 200 mg/dl glucose levels were considered as diabetic and these animals were randomly distributed into various groups. The compounds listed in the table 3 were administered at a dose of 50 mg/kg body weight by oral route for 7 days. Later animals were fasted for 6 hours and blood was collected and plasma separated. Biochemical estimations like glucose, cholesterol and triglycerides were carried out using the plasma. The effect of compounds mentioned in the table was expressed in terms of percentage reduction in biochemical values as compared to control group.
# T1 sequence (P27487 39-766 limits assumed): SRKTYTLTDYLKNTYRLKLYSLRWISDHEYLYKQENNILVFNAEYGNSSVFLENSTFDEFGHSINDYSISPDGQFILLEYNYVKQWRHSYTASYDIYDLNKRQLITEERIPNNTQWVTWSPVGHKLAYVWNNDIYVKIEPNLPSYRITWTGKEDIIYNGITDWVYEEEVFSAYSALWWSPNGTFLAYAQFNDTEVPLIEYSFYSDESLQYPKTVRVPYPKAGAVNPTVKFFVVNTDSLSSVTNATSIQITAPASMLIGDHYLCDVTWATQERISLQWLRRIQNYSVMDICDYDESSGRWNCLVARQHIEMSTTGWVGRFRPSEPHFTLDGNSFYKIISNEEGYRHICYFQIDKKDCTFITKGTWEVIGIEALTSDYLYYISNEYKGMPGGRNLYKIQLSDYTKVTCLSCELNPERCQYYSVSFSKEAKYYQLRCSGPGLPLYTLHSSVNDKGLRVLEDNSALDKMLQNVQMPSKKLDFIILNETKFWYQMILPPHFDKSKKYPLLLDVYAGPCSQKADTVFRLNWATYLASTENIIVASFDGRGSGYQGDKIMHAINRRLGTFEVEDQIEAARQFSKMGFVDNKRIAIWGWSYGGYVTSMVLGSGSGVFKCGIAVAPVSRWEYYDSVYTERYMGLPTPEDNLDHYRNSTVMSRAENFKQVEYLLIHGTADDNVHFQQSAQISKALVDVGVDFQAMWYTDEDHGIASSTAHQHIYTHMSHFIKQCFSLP
compound,measurement,setting,value
CN1C(=O)OCC1Cc1ccc(Oc2ccc(/C=C3\C(=O)Nc4ccccc43)cc2C(F)(F)F)cc1 (stereo not shown) [Example 14],inhibition at 10 µM,"IL-1β; Homo sapiens, PBMC, 10 μM, read-out: % Inhibition IL1beta",32.1%
same,inhibition of breast cancer cell growth,MCF-7,strong inhibitor
same,inhibition at 1 µM,DPP IV; 1 μM,4.64%
same,inhibition at 10 µM,DPP IV; 10 μM,7.42%
same,inhibition at 1 µM,"TNF-α; Homo sapiens, PBMC, 1 μM, read-out: % Inhibition TNF alpha",15.9%
same,inhibition at 10 µM,"TNF-α; Homo sapiens, PBMC, 10 μM, read-out: % Inhibition TNF alpha",25.4%
same,inhibition of colon cancer cell growth,HT-29,strong inhibitor
"5-(3-methoxy-4-{4-[(3-methyl-2-oxo-1,3-oxazolidin-4-yl)methyl]phenoxybenzylidene)-1,3-dihydro-2H-indol-2-one [Example 11]",% Inhibition IL1beta,IL-1β; 1 μM,17.10%
same,Stimulation Index,3T3-L1 cells,1.12
same,% Inhibition TNF alpha,TNF-α; 1 μM,18.77%
same,% Inhibition TNF alpha,TNF-α; 10 μM,26.07%
"CN1CC(Cc2ccc(Oc3ccc(/C=C4/SC(=S)N(CC(=O)O)C4=O)cc3)cc2)OC1=O (stereo not shown) [Example 32, 3-methyl-5-(4-{4-[(E)-(3-aceticacid-4-oxo-2-thioxo-1,3-thiazolidin-5-ylidene)methyl]phenoxy}benzyl)-1,3-oxazolidin-2-one]",Stimulation Index,3T3-L1 cells,0.89
"CCN1C(=O)OCC1Cc1ccc(Oc2ccc(CC3SC(=S)NC3=O)cc2)cc1 (stereo not shown) [Example 78, 3-ethyl-4-(4-{4-[(4-oxo-2-thioxo-1,3-thiazolidin-5-yl)methyl]phenoxy}benzyl)-1,3-oxazolidin-2-one]",adipogenesis (Oil-red-O staining),"3T3-L1 fibroblasts; 1 μM, stained on day 13",remained unchanged
same,"adipogenesis DRC, Oil-red-O staining",3T3-L1 fibroblasts; at tested concentrations,did not show significant staining
same,affinity to PPARγ receptor,3T3-L1 fibroblasts; indirect proof from adipogenesis assay,no affinity
same,glucose uptake activity,"3T3-L1 cells; statement in words, table-1 assay",good glucose uptake activity
same,inhibition in vivo at 50 mg/kg,[1]; read-out: % Reduction Cholesterol,59%
same,inhibition in vivo at 50 mg/kg,[1]; read-out: % Reduction Glucose,45.4%
same,inhibition in vivo at 50 mg/kg,[1]; read-out: % Reduction Triglycerides,44.2%
